From PubChem BioAssay AID624112 (National Center for Advancing Translational Sciences (NCATS), 2012) come the findings set out here.

In the series the test system is Aqueous solubility in PBS, percent remaining. Description: qHTS Assay for Inhibitors of Bacillus subtilis Sfp phosphopantetheinyl transferase (PPTase): Aqueous Solubility in PBS. The following applies: hits give high values. The text has this:
The covalent attachment of a phosphopantetheinyl (4'-PP) arm to a variety of synthases and other proteins is a key posttranslational protein modification. The 4'-PP is installed on the proteins post-translationally from coenzyme A (CoA) on a conserved serine residue by action of phosphopantetheinyl transferase (PPTase) enzymes. Phosphopantetheinylation is essential for synthase activity, and removal of the PPTase gene precludes natural product synthesis in microorganisms, or in the case of fatty acid biosynthesis, renders the organism unviable. PPTase enzymes belong to a distinct structural superfamily. Within bacteria, these enzymes are grouped into two classes based upon primary structure, the AcpS-Type and Sfp-Type PPTases.
Sfp-type PPTases, corresponding to an activator of surfactin production in Bacillus subtilis, are responsible for modifying type I polyketide and nonribosomal peptide synthases of prokaryotes. Sfp-type PPTases are responsible for the activation of a variety of pathogen-associated virulence factors. […]
2microM of compound is incubated in PBS buffer at pH 7; the reference compound is procaine. Compounds are incubated at 37 deg C for the pre-determined time periods and the when aliquots are removed. Samples are analyzed with LC-MS/MS.
In general terms: Quantitative high-throughput screening tests each substance at several concentrations.

SMILES strings stand for the structures.

For the molecule `COc1ccnc(NC(=S)N2CCN(c3ncc(C(F)(F)F)cc3Cl)CC2)c1`, the solubility, percent remaining is 100%.
